Source: US20240124466A1, “COMPOUNDS AND USE THEREOF FOR TREATMENT OF NEURODEGENERATIVE, DEGENERATIVE AND METABOLIC DISORDERS” (VOVA IDA THERAPEUTICS, INC., priority 2020, published 2024)
Values joined by “and” are separate entries in the source; they are usually repeats but may differ in a detail not shown here. Identical values can stand only once. Like-named read-outs stand apart in the source and are kept apart here.

Key:
[1] = tested on: PK1 neuroblastoma cells exposed to TPrP; details: for toxic at cc (concentration above which compound is toxic): mouse; for EC50: read-out: TPrP EC50
[2] = tested on: PK1 neuroblastoma cells exposed to TPrP; experiment: cells; details: Neuroblastoma cell, 96 h, read-out: TPrP EC50

SMILES | EC50 [2] [nM] | other results
Cc1ccc(-c2ccnc(-c3ccncc3)c2)cc1S(=O)(=O)N1CCOCC1 [SR-29204, 4-((5-([2,4′-Bipyridin]-4-yl)-2-methylphenyl)sulfonyl)morpholine] | < 5 | protection at 5 nM [1]: <5 nM (100% protection at 5 nM)
Cc1ccc(-c2nnc(-c3ccc(N(C)C)cc3)[nH]2)cc1S(=O)(=O)N1CCOCC1 [SR-28124, N,N-dimethyl-4-(5-(4-methyl-3-(morpholinosulfonyl)phenyl)-4H-1,2,4-triazol-3-yl)aniline] | 12 | toxic at cc (concentration above which compound is toxic) [1]: 12 nM (but toxic at cc >135 nM)
Cc1ccc(-c2nnc3c4ccccc4c(C)nn23)cc1S(=O)(=O)N1CCOCC1 [SR-843] | 15 | EC50 [1]: 20 nM and 25 nM and 30 nM
Cc1ccc(-c2nnc(-c3ccccc3)[nH]2)cc1S(=O)(=O)N1CCOCC1 [SR-25604, 4-((2-Methyl-5-(5-phenyl-4H-1,2,4-triazol-3-yl)phenyl)sulfonyl)morpholine] | 35 | EC50 [1]: 30 nM and 40 nM
Cc1ccc(-c2nnc(-c3ccccc3)[nH]2)cc1S(=O)(=O)N1CCC(O)(c2cccnc2)CC1 [SR-32924, 1-((2-Methyl-5-(5-phenyl-4H-1,2,4-triazol-3-yl)phenyl)sulfonyl)-4-(pyridin-3-yl)piperidin-4-ol] | > 1500 | –
Cc1ccc(-c2ccnc(Cl)c2)cc1S(=O)(=O)N1CCN(C(=O)c2ccco2)CC1 [SR-35516, (4-((5-(2-Chloropyridin-4-yl)-2-methylphenyl)sulfonyl)piperazin-1-yl)(furan-2-yl)methanone] | 270 | –
Cc1ccc(-c2nnc(-c3ccccc3)[nH]2)cc1S(=O)(=O)N1CCC(O)CC1 [SR-32045, 1-((2-Methyl-5-(5-phenyl-4H-1,2,4-triazol-3-yl)phenyl)sulfonyl)piperidin-4-ol] | > 1500 | –
O=S(=O)(c1cc(-c2nnc(-c3ccccc3)[nH]2)ccc1C1CC1)N1CCOCC1 [SR-29784, 4-((2-Cyclopropyl-5-(5-phenyl-4H-1,2,4-triazol-3-yl)phenyl)sulfonyl) morpholine] | 600 | –
Cc1ccc(-c2nnc(-c3ccc([N+](=O)[O-])cc3)[nH]2)cc1S(=O)(=O)N1CCOCC1 [SR-29045, 4-((2-Methyl-5-(5-(4-nitrophenyl)-4H-1,2,4-triazol-3-yl)phenyl)sulfonyl) morpholine] | 5 | toxic at cc (concentration above which compound is toxic) [1]: 5 nM (but toxic at cc >5 nM)
C[C@@H]1CN(S(=O)(=O)c2cc(-c3nnc(-c4ccccc4)[nH]3)ccc2C(F)(F)F)C[C@H](C)O1 [SR-30786, (cis)-2,6-dimethyl-4-((5-(5-phenyl-4H-1,2,4-triazol-3-yl)-2-(trifluoromethyl)phenyl)sulfonyl)morpholine] | > 1200 | –
Cc1ccc(-c2nnc(-c3ccccc3)[nH]2)cc1S(=O)(=O)NCc1cncnc1 [SR-33344, 2-Methyl-5-(5-phenyl-4H-1,2,4-triazol-3-yl)-N-(pyrimidin-5-ylmethyl)benzene sulfonamide] | 650 | –
Cc1ccc(-c2nnc(-c3ccccc3)[nH]2)cc1S(=O)(=O)N1C2CCC1COC2 [SR-32704, 8-((2-Methyl-5-(5-phenyl-4H-1,2,4-triazol-3-yl)phenyl)sulfonyl)-3-oxa-8-azabicyclo[3.2.1]octane] | 800 | –
Cc1ccc(-c2nnc(-c3ccccc3)[nH]2)cc1S(=O)(=O)N1CCN(CCO)CC1 [SR-32124] | 15 | –
Cc1ccc(-c2nnc(-c3ccccc3)[nH]2)cc1S(=O)(=O)N1CCC(CCO)CC1 [SR-33725, 2-(1-((2-Methyl-5-(5-phenyl-4H-1,2,4-triazol-3-yl)phenyl)sulfonyl)piperidin-4-yl)ethan-1-ol] | > 1500 | –
COc1ccc(-c2nnc(-c3ccc(C)c(S(=O)(=O)N4CCOCC4)c3)[nH]2)cc1 [SR-28104, 4-((5-(5-(4-Methoxyphenyl)-4H-1,2,4-triazol-3-yl)-2-methylphenyl)sulfonyl) morpholine] | 15 | –
Cc1ccc(-c2nnc(-c3ccccc3)[nH]2)cc1S(=O)(=O)NCc1ccccn1 [SR-32144, 2-Methyl-5-(5-phenyl-4H-1,2,4-triazol-3-yl)-N-(pyridin-2-ylmethyl)benzene sulfonamide] | > 1500 | –
Cc1ccc(-c2ccnc(Cl)c2)cc1S(=O)(=O)N1CCN(CCO)CC1 [SR-34793, 2-(4-((5-(2-Chloropyridin-4-yl)-2-methylphenyl)sulfonyl)piperazin-1-yl)ethan-1-ol] | 40 | –
Cc1ccc(-c2nnc(-c3ccccc3)[nH]2)cc1S(=O)(=O)N1CCCC2(C1)OCCO2 [SR-33045, 7-((2-Methyl-5-(5-phenyl-4H-1,2,4-triazol-3-yl)phenyl)sulfonyl)-1,4-dioxa-7-azaspiro[4.5]decane] | > 1500 | –
Cc1ccc(-c2ccnc(Cl)c2)cc1S(=O)(=O)N1CCN(CC(F)(F)F)CC1 [SR-35324, 1-((5-(2-Chloropyridin-4-yl)-2-methylphenyl)sulfonyl)-4-(2,2,2-trifluoroethyl) piperazine] | > 1500 | –
